Test results published in patent US7314879B2, “Melanocortin receptor agonists” (Eli Lilly and Company, priority 2002, dated 2008).

Assays:
MC4 [1] = molecular target: T1, MC4 (Homo sapiens, UniProt P32245); experiment: Radioligand binding assay: competitive inhibition of 125I-NDP-alpha-MSH binding to membranes of stably transfected HEK 293 cells; conditions: 125I-NDP-alpha-MSH competition; Ki from IC50 by Cheng-Prusoff equation
T1 construct: expressed in transfected cells; host or cells: HEK 293
T1 sequence (P32245 whole entry): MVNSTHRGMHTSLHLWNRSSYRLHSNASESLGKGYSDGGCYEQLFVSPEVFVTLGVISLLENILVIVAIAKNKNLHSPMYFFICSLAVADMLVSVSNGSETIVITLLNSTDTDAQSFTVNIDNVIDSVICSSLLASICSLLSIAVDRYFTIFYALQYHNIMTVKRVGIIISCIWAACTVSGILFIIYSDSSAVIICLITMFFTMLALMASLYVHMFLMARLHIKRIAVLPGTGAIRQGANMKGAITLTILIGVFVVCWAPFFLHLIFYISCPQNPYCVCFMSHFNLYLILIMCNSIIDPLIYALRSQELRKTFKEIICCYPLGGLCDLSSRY
Experimental: The radioligand binding assay is used to identify competitive inhibitors of ^125I-NDP-alpha-MSH binding to cloned human MCRs using membranes from stably transfected human embryonic kidney (HEK) 293 cells.
HEK 293 cells transfected with human or rat melanocortinin receptors are grown either as adherent monolayers or suspension culture. Monolayer cells are grown in roller bottle cultures at 37° C. and 5% CO2/air atmosphere in a 3:1 mixture of Dulbecco's modified Eagle medium (DMEM) and Ham's F12 containing 25 mM L-glucose, 100 units/ml penicillin G, 100 microgram/ml streptomyocin, 250 nanogram/ml amphoterin B, 300 microgram/ml genticin and supplemented with 5% fetal bovine serum. Monolayer cells are adapted to suspension culture (Berg et al., Biotechniques Vol. 14, No.6, 1993) and are grown in spinner or shaker flasks (37° C. and 7.5% CO2/air overlay) in a modified DME/F12 medium containing 0.1 mM CaCl2, 2% equine serum and 100 microgram/ml sodium heparin (to prevent cell-cell aggregation). Cells are harvested by centrifugation, washed in PBS, and pellets are stored frozen at −80° C. until membrane preparations.
The cell pellets are resuspended in 10 volumes of membrane preparation buffer (i.e., 1 g pellet to 10 ml buffer) having the following composition: 50 mM Tris pH 7.5 @ 4° C., 250 mM sucrose, 1 mM MgCl2, Complete® EDTA-free protease inhibitor tablet (Boehringer Mannheim), and 24 micrograms/ml DNase I (Sigma, St. Louis, Mo.). The cells are homogenized with a motor-driven dounce using 20 strokes, and the homogenate is centrifuged at 38,000×g at 4° C. for 40 minutes. […]
Solutions of a compound of formula I (300 picomolar to 30 micromolar) or unlabelled NDP-alpha-MSH (1 picomolar to 100 nanomolar) are added to 150 microliters of membrane binding buffer to yield final concentrations (listed in parantheses). […] The radioactivity is quantified in a Wallac Trilux Microplate Scintillation counter. […]

MC4 [2] = molecular target: T1, MC4; experiment: Functional agonist assay in HEK 293 cells stably expressing melanocortin receptor (luciferase reporter / whole cell cAMP accumulation); type: cell-based; conditions: for EC50: agonist potency, concentration giving half maximal stimulation; for % Rel. Eff.: relative efficacy compared to NDP-alpha-MSH defined as 100% agonist
Source text: Functional cell based assays are developed to discriminate agonists and antagonists.
Agonist Assay: HEK 293 cells stably expressing a human melanocortin receptor (see e.g., Yang, et al., Mol-Endocrinol., 11(3): 274-80, 1997) are dissociated from tissue culture flasks using a trypsin/EDTA solution (0.25%; Life Technologies, Rockville, Md.). Cells are collected by centrifugation and resuspended in DMEM (Life Technologies, Rockville, Md.) supplemented with 1% L-glutamine and 0.5% fetal bovine serum. Cells are counted and diluted to 4.5×10^5/ml.
A compound of formula I is diluted in dimethylsulfoxide (DMSO) (3×10^−5 to 3×10^−10 M final concentrations) and 0.05 volume of compound solution is added to 0.95 volumes of cell suspension; the final DMSO concentration is 0.5%. After incubation at 37° C./5% CO2 for 5 hours, cells are lysed by addition of luciferin solution (50 mM Tris, 1 mM MgCl2, 0.2% Triton-X100, 5 mM DTT, 500 micromolar Coenzyme A, 150 micromolar ATP, and 440 micromolar luciferin) to quantify the activity of the reporter gene luciferase, an indirect measurement of intracellular cAMP production.
Luciferase activity is measured from the cell lysate using a Wallac Victor 2 luminometer. The amount of lumen production which results from a compound of formula I is compared to that amount of lumens produced in response to NDP-alpha-MSH, defined as a 100% agonist, to obtain the relative efficacy of a compound. The EC50 is defined as the compound concentration that results in half maximal stimulation, when compared to its own maximal level of stimulation.
In the agonist assay, compounds are prepared as 10 mM and NDP-aMSH (control) as 33.3 μM stock solutions in 100% DMSO. These are serially diluted in 100% DMSO. The compound plate is further diluted 1:200 in compound dilution buffer (HBSS-092, 1 mM Ascorbic Acid, 1 mM IBMX, 0.6% DMSO, 0.1% BSA). The final concentration range being 10 μM-100 pM for compound and 33.33 nM-0.3 pM for control in 0.5% DMSO. Transfer 20 μl from this plate into four PET 96-well plates (all assays are performed in duplicate for each receptor).
HEK 293 cells stably transfected with the MC3R and MC4R were grown in DMEM containing 10% FBS and 1% Antibiotic/Antimycotic Solution. On the day of the assay the cells were dislodged with enzyme free cell dissociation solution and resuspended in cell buffer (HBSS-092, 0.1% BSA, 10 mM HEPES) at 1×e6 cells/ml. Add 40 μl of cells/well to the PET 96-well plates containing 20 ul diluted compound and control. Incubate @ 37° C. in a waterbath for 20 minutes. Stop the assay by adding 50 μl Quench Buffer (50 mM Na Acetate, 0.25% Triton X-100).
Radioligand binding assays were run in SPA buffer (50 mM Sodium Acetate, 0.1% BSA). The beads, antibody and radioligand were diluted in SPA buffer to provide sufficient volume for each 96-well plate. To each quenched assay well was added 100 ul cocktail containing 33.33 ul of beads, 33.33 μl antibody and 33.33 μl ^125 I-cAMP. This was based on a final concentration of 6.3 mg/ml beads, 0.65% anti-goat antibody and 61 pM of ^125I-cAMP (containing 25000-30000 CPM) in a final assay volume of 210 μl. The plates were counted in a Wallac MicroBeta counter after a 12-hour incubation.
The data was converted to pmoles cAMP using a standard curve assayed under the same conditions. The data was analyzed using Activity Base software to generate agonist potencies (EC50) and percent relative efficacy data to NDP-aMSH.

Row | Ki (MC4 [1]) | EC50 (MC4 [2]) | % Rel. Eff. (MC4 [2]) | SMILES
1 | 6.5 nM | 25.4 nM | 112% | CN1CCC(CC2CCCCC2)(N2CCN(C(=O)[C@@H](Cc3ccc(Cl)cc3)NC(=O)CC3NCc4ccccc43)CC2)CC1 (stereo partly drawn) [Example 10I]
2 | 28.8 nM | 99.8 nM | 124% | CC(C)CC1(N2CCN(C(=O)[C@@H](Cc3ccc(Cl)cc3)NC(=O)CC3NCc4ccccc43)CC2)CCCC1 (stereo partly drawn) [Example 8I]
3 | 24.3 nM | 18.9 nM | 114% | CN1CCC(Cc2ccccc2F)(N2CCN(C(=O)[C@@H](Cc3ccc(Cl)cc3)NC(=O)CC3NCc4ccccc43)CC2)CC1 (stereo partly drawn) [Example 4I]
